# Tests used:
# [1] = biological target: γ isoform of human Class I PI3 kinases (Homo sapiens (Human), UniProt P48736); assay: PI3-Kinase Promega ADP-Glo Max assay, γ isoform; format: biochemical; conditions: for PI3K δ/PI3K γ IC50 (selectivity): ratio of PI3K δ IC50 to PI3K γ IC50
# [2] = biological target: PI3K-γ (Mus musculus (Mouse), UniProt Q9JHG7); assay: PI3K-γ selective cellular assay: phospho-AKT in C5a stimulated RAW264.7 macrophages; format: cell-based; conditions: ratio of RAJI p110 δ assay IC50 to Raw264.7 p110 γ assay IC50
# [3] = biological target: α isoform of human Class I PI3 kinases (Homo sapiens (Human), UniProt P42336); assay: PI3-Kinase Promega ADP-Glo Max assay, α isoform; format: biochemical; conditions: read-out: PI3K α IC50
# [4] = biological target: β isoform of human Class I PI3 kinases (Homo sapiens (Human), UniProt P42338); assay: PI3-Kinase Promega ADP-Glo Max assay, β isoform; format: biochemical; conditions: read-out: PI3K β IC50
# [5] = biological target: δ isoform of human Class I PI3 kinases (Homo sapiens (Human), UniProt O00329); assay: PI3-Kinase Promega ADP-Glo Max assay, δ isoform; format: biochemical; conditions: read-out: PI3K δ IC50
# [6] = test system: PI3K/Akt/mTOR signaling; assay: Kinase signaling in blood (phosflow); format: cell-based; conditions: unfractionated splenocytes or peripheral blood mononuclear cells stimulated with anti-CD3
# Protocol: PI3K/Akt/mTOR signaling is measured in blood cells using the phosflow method (Methods Enzymol. (2007) 434:131-54). This method is by nature a single cell assay so that cellular heterogeneity can be detected rather than population averages. This allows concurrent distinction of signaling states in different populations defined by other markers. Phosflow is also highly quantitative. To test the effects of one or more compounds provided herein, unfractionated splenocytes, or peripheral blood mononuclear cells are stimulated with anti-CD3 to initiate T-cell receptor signaling. The cells are then fixed and stained for surface markers and intracellular phosphoproteins. […]
# Similarly, aliquots of whole blood are incubated for 15 minutes with vehicle (e.g., 0.1% DMSO) or kinase inhibitors at various concentrations, before addition of stimuli to crosslink the T cell receptor (TCR) (anti-CD3 with secondary antibody) or the B cell receptor (BCR) using anti-kappa light chain antibody (Fab′2 fragments). […] The level of phosphorylation of kinase substrates such as Akt and S6 are then measured by incubating the fixed cells with labeled antibodies specific to the phosphorylated isoforms of these proteins. The population of cells are then analyzed by flow cytometry.
# Sequence of PI3K-γ (Q9JHG7 whole entry, canonical isoform): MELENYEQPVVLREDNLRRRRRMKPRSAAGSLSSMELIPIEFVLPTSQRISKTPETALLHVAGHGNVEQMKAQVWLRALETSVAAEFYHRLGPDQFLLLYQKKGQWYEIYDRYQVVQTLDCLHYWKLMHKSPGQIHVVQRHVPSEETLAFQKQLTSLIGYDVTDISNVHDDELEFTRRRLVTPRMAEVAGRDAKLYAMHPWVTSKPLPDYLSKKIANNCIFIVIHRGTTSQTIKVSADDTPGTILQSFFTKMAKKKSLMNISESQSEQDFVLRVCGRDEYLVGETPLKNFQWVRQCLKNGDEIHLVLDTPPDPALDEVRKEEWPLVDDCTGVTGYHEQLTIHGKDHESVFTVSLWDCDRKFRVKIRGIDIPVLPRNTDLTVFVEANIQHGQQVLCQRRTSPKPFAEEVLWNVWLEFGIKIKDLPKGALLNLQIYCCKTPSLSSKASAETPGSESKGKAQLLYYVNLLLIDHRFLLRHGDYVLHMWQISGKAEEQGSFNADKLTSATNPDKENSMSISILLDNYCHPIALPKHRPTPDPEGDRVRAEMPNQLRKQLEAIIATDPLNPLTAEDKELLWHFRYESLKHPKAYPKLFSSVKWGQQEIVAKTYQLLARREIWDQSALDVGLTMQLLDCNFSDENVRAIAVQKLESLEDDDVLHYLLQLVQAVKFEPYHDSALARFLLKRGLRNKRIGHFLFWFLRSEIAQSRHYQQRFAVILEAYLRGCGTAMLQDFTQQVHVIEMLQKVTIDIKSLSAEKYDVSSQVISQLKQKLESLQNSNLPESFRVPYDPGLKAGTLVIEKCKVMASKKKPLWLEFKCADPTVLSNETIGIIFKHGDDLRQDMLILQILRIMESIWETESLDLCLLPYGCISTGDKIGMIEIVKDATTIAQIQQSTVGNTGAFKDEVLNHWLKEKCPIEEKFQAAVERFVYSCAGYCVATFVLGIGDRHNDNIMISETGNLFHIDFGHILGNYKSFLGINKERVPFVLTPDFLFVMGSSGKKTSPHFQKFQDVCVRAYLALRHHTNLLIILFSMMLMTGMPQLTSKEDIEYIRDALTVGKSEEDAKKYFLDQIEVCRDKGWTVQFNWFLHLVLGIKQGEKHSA
# Sequence of γ isoform of human Class I PI3 kinases (P48736 whole entry, canonical isoform): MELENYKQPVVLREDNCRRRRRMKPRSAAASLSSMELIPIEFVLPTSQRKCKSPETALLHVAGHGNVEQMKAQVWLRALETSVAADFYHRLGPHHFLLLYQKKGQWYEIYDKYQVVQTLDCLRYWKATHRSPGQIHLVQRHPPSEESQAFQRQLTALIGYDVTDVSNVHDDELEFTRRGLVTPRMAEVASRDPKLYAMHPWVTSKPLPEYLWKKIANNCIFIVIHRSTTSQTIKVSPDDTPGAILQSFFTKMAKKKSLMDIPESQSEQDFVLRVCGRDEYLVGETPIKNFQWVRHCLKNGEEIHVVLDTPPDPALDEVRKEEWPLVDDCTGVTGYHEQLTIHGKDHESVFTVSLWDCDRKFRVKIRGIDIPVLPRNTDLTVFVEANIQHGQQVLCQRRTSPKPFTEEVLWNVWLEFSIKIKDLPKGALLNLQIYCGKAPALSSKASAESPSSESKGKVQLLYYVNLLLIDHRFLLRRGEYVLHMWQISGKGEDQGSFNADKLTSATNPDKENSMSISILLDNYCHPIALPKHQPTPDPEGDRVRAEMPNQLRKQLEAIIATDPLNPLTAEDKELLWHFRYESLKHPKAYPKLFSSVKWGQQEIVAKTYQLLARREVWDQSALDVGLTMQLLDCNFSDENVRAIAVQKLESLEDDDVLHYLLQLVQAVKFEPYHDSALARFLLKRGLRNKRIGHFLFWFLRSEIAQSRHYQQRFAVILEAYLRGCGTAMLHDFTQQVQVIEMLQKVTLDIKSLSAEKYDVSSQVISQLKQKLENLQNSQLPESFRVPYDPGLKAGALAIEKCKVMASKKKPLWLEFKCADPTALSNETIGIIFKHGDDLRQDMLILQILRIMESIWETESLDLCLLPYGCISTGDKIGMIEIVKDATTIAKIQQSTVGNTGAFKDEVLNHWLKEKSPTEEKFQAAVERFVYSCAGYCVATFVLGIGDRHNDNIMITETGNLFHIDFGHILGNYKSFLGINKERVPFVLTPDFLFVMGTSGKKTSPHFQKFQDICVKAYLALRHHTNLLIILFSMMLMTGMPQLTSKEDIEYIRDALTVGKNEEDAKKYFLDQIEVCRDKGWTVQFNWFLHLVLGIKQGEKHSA
# Sequence of α isoform of human Class I PI3 kinases (P42336 whole entry, canonical isoform): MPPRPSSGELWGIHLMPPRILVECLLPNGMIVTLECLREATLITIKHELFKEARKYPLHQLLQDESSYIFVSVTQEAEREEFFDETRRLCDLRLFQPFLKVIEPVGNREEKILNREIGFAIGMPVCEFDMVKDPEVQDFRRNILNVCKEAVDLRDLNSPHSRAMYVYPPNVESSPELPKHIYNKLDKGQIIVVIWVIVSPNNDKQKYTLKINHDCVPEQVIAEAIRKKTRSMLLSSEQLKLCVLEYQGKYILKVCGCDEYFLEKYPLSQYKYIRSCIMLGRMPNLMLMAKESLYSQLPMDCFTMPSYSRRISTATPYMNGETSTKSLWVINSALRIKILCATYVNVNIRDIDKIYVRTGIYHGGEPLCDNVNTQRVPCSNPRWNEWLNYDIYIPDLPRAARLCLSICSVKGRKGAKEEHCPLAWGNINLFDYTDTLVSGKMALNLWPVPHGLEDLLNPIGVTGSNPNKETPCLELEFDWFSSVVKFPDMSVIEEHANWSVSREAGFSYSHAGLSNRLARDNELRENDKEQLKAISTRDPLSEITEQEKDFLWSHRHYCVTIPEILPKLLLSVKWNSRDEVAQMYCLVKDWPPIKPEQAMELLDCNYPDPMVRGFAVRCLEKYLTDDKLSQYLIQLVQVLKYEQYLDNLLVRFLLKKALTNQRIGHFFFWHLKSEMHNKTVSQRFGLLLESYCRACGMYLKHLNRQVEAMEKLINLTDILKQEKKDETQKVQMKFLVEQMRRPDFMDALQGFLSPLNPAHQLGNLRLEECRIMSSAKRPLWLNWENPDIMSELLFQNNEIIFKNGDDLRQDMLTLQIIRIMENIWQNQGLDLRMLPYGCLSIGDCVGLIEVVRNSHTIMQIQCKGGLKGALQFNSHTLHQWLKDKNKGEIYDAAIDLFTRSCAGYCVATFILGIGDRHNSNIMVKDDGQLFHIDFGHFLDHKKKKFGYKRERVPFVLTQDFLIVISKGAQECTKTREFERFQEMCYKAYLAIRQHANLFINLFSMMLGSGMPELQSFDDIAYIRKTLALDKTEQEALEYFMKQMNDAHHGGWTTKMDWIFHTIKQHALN
# Sequence of α isoform of human Class I PI3 kinases (P27986 whole entry partner, canonical isoform): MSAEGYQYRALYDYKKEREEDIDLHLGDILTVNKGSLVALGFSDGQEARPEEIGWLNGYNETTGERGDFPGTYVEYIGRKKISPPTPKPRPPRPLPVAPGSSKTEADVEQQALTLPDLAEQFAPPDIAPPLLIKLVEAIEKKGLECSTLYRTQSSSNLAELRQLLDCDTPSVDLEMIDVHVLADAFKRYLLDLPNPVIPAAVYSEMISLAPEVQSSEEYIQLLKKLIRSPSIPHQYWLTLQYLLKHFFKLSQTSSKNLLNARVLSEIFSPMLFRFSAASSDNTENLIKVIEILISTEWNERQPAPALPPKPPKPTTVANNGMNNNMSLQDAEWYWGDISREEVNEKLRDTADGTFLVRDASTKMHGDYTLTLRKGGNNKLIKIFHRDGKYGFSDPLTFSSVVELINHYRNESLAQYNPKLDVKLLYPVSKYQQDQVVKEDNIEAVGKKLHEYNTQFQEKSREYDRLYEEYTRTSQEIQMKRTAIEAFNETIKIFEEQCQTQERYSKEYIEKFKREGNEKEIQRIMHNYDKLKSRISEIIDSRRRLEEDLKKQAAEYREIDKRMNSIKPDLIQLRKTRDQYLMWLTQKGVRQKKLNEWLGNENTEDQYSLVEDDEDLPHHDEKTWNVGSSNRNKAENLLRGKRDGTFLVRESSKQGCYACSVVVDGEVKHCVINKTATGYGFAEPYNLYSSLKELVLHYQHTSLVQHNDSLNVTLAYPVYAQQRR
# Sequence of β isoform of human Class I PI3 kinases (P42338 whole entry, canonical isoform): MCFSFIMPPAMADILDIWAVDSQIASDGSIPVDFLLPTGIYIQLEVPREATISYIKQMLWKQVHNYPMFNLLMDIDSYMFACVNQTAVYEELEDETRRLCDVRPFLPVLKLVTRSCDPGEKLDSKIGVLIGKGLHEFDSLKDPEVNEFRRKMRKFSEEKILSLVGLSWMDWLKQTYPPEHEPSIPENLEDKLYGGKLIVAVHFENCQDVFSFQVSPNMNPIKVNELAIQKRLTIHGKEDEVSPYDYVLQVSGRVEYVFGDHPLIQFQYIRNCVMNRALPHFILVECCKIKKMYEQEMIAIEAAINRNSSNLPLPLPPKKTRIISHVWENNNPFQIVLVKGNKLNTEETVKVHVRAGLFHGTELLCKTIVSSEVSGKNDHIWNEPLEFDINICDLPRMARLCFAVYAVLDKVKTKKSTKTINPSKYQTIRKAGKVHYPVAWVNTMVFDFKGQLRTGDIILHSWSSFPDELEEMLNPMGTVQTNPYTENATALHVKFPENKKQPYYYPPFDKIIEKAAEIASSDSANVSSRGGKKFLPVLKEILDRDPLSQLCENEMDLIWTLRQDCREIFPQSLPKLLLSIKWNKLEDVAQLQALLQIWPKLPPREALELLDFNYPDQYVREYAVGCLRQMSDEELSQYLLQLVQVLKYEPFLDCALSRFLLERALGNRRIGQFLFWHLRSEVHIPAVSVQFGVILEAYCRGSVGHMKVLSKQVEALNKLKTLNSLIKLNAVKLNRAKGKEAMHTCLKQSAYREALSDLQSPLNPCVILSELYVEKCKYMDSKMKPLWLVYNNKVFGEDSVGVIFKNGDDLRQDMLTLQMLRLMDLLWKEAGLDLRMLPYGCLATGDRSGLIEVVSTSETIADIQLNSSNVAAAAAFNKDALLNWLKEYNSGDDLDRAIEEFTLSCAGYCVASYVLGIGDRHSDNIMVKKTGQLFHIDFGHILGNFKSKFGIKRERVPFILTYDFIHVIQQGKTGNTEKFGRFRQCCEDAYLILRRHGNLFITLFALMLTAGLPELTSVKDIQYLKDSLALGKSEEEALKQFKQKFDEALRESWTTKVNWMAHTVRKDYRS
# Sequence of β isoform of human Class I PI3 kinases (P27986 whole entry partner, canonical isoform): as the sequence (P27986 whole entry partner, canonical isoform) above
PI3K δ/PI3K γ IC50 (selectivity) [1],RAJI δ/Raw264.7 γ IC50 (selectivity) [2],SMILES,other results
X (X = 10 to <50),X (X = 10 to <50),CC(=O)N1CCC(C#Cc2cccc3cc([C@H](C)NC(=O)c4c(N)nn5cccnc45)n(-c4ccccc4)c(=O)c23)CC1 [Compound 82],
X (X = 10 to <50),X (X = 10 to <50),C[C@H](NC(=O)c1c(N)nn2cccnc12)c1cc2cccc(C#CC3CCN(S(C)(=O)=O)CC3)c2c(=O)n1-c1ccccc1 [Compound 83],

# More lines, now with the values behind:
SMILES,PI3K δ/PI3K γ IC50 (selectivity) [1],RAJI δ/Raw264.7 γ IC50 (selectivity) [2],other results
C[C@H](NC(=O)c1c(N)nn2cccnc12)c1cc2cccc(C#CC=O)c2c(=O)n1-c1ccccc1 [Compound 36],X (X = 10 to <50),W (W = >1 to <10),
C[C@H](NC(=O)c1c(N)nn2cccnc12)c1cc2cccc(C#Cc3ccn[nH]3)c2c(=O)n1-c1ccccc1 [Compound 43],Y (Y = 50 to <850),X (X = 10 to <50),IC50 [3]: 5 to 10 µM; IC50 [4]: 5 to 10 µM; IC50 [5]: 5 to 10 µM; IC50 ([1]; read-out: PI3K γ IC50): 0.1 to 0.5 µM
C/C=C/c1cccc2cc([C@H](C)NC(=O)c3c(N)nn4cccnc34)n(-c3ccccc3)c(=O)c12 [Compound 70],X (X = 10 to <50),,
C[C@H](NC(=O)c1c(N)nn2cccnc12)c1cc2cccc(C#CC3CNC3)c2c(=O)n1-c1ccccc1 [Compound 74],W (W = >1 to <10),W (W = >1 to <10),
C[C@H](NC(=O)c1c(N)nn2cccnc12)c1cc2cccc(C#Cc3cn[nH]c3)c2c(=O)n1-c1ccccc1 [Compound 80],Y (Y = 50 to <850),Y (Y = 50 to <850),
"Cc1c(C#Cc2cccc3nc([C@H](C)NC(=O)c4c(N)nn5cccnc45)n(-c4ccccc4)c(=O)c23)cnn1C [Compound 88, (S)-2-amino-N-(1-(5-((1,5-dimethyl-1H-pyrazol-4-yl)ethynyl)-4-oxo-3-phenyl-3,4-dihydroquinazolin-2-yl)ethyl)pyrazolo[1,5-a]pyrimidine-3-carboxamide]",X (X = 10 to <50),Y (Y = 50 to <850),
C[C@H](NC(=O)c1c(N)nn2cccnc12)c1cc2cccc(NC(=O)c3cnn(C)c3)c2c(=O)n1-c1ccccc1 [Compound 90],W (W = >1 to <10),X (X = 10 to <50),
CO[C@H]1C[C@@H]2CC[C@@H](C)[C@@](O)(O2)C(=O)C(=O)N2CCCC[C@H]2C(=O)O[C@H]([C@H](C)C[C@@H]2CC[C@@H](O)[C@H](OC)C2)CC(=O)[C@H](C)/C=C(\C)[C@@H](O)[C@@H](OC)C(=O)[C@H](C)C[C@H](C)/C=C/C=C/C=C/1C [rapamycin],,,anti-CD3 mediated phosphorylation of Akt-S473 [6]: enhances; anti-CD3 mediated phosphorylation of S6 [6]: inhibits

# — patent publication US10329299B2, “Heterocyclic compounds and uses thereof” (Infinity Pharmaceuticals, Inc., priority 2013, dated 2019)
